The experiment deals with T1, Progesterone receptor (Homo sapiens, UniProt P06401).
T1 sequence (P06401 whole entry): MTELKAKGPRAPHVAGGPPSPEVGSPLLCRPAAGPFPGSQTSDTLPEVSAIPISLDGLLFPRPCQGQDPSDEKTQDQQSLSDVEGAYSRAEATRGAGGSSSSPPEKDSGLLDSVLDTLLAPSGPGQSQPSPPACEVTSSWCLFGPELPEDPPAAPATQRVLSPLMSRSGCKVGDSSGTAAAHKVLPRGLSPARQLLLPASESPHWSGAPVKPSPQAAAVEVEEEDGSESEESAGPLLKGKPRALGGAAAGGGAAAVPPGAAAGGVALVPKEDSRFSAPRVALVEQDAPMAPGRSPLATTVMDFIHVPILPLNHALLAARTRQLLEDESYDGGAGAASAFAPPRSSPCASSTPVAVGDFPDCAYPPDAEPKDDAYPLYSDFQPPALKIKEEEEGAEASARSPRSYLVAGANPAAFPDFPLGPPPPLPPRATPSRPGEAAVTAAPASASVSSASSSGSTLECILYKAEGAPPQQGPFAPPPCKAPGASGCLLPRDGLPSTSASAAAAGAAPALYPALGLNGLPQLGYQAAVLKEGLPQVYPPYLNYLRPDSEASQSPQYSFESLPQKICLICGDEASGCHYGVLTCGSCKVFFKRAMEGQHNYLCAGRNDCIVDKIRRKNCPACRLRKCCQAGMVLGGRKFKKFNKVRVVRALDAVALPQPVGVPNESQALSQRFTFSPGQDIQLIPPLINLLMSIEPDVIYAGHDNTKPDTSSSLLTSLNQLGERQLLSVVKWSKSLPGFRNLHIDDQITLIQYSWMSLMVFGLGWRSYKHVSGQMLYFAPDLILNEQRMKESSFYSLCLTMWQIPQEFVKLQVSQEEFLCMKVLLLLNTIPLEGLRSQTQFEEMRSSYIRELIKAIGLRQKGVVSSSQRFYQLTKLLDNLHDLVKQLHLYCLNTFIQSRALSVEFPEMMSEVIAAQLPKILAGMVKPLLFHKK
The experiment is described as follows: Progesterone Receptor Binding Assay. The settings on record: 22 °C.

`C[C@]12CCC(=O)C=C1CCC1C2CC[C@@]2(C)C1CC[C@@H]2C(=O)COCCCCCC[N+]12CC[N+]34CC[N+]56CC[N+]7(CC1)CC(=O)[O][Gd-4]2375([O]C(=O)C4)[O]C(=O)C6` (some centres not stated) [Steroid-Gd (III) conjugate, 2] returned an IC50 of 460 nM.
On to `C[C@]12CCC(=O)C=C1CCC1C2CC[C@@]2(C)C1CC[C@@H]2C(=O)COCCCCCCNC(=S)Nc1ccc(CC2C[N+]34CC[N+]56CC[N+]78CC[N+]29CC(=O)[O][Gd-5]5739([O]C(=O)C6)([O]C(=O)C8)[O]C(=O)C4)cc1` (some centres not stated) [Steroid-Gd (III) conjugate, 3], for which the IC50 is 860 nM.

For orientation: IC50 means the concentration that inhibits the measured activity by half. Higher therefore signals weaker potency in that assay.

Values taken from BindingDB's records for doi:10.1016/j.chembiol.2007.06.006 (Northwestern University, 2007).
